Our source for the GI50 and TGI values is PubChem BioAssay (NCI).

What all share (experiment): NCI tumour cell line growth inhibition, 48 h
In test [1] the test system is SR leukemia.
For test [2], the system named is A549 NSCLC.
Test [3] concerns U251 CNS.
Test [4] has as its system M14 melanoma.
Test [5] deals with COLO 205 colon.
For test [6], the system named is SNB-19 CNS.
For test [7], the system named is UO-31 renal.
Test [8] concerns RXF 393 renal.
The test system of test [9] is CCRF-CEM leukemia.
Test [10] deals with MDA-MB-231 breast.

SMILES strings stand for the structures. Values joined by “and” are separate entries in the source; they are usually repeats but may differ in a detail not shown here. Identical values can stand only once.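 Results reflect a 48-hour exposure of cells in 96-well plates to compound at five concentrations. GI50: concentration for 50% inhibition of growth. TGI: concentration producing complete growth inhibition.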

For the molecule `C=CC(=O)Nc1cccc(Nc2nc(Nc3ccc(OCCOC)cc3)ncc2F)c1`, the GI50 in test [1] is 3.41 µM; in test [2] it was 2.77 µM; in test [3] it was 1.89 µM; in test [4], 1.12 µM; in test [5], 2.39 µM; in test [6], 3.91 µM. Moreover, the GI50 was 0.549 µM in test [7], 0.387 µM in [8], 4.06 µM in test [9] and 2.85 µM in test [10]. Further, the TGI in [1] was above 100 µM; in test [2] it was 13.1 µM; in test [3], 16 µM; in [4], 12.7 µM; in [5] it was 11 µM; in [6], 37.4 µM. Moreover, the TGI in test [7] is 5.06 µM; in test [8] it was 2.73 µM; in test [9], above 63.1 µM; in test [10], 24.7 µM.
For the molecule `CC(=O)O[C@H]1C(=O)[C@@]2(C)[C@H]([C@H](OC(=O)c3ccccc3)[C@]3([O-])C[C@H](OC(=O)[C@H]([O-])[C@@H](NC(=O)c4ccccc4)c4ccccc4)C(C)=C1C3(C)C)[C@]1(OC(C)=O)CO[C@@H]1C[C@@H]2[O-].[Fe+3]`, the GI50 was 0.0268 µM and 0.199 µM in test [1]; 0.0335 µM and 0.0852 µM in test [2]; 0.0357 µM and 0.0647 µM in [3]; 0.11 µM and 0.0637 µM in [4]; 0.0365 µM and 0.0432 µM in test [5]; 0.281 µM and 0.534 µM in test [6]. Besides, the GI50 in test [7] is 4.45 µM and 4.87 µM; in test [8], 0.117 µM and 0.0955 µM; in [9], 0.249 µM and 0.876 µM; in test [10], 0.746 µM and 0.732 µM. The TGI in [2] is 65 µM and > 100 µM; in test [3] it was 7.38 µM and 17.2 µM; in [4], 0.491 µM and 0.391 µM; in [5], 0.226 µM and 0.508 µM; in test [6] it was 65 µM and > 100 µM; in test [7] it was 65 µM and > 100 µM. The TGI in [9] is 65 µM and 68.9 µM; in test [10], 63.9 µM and 32.2 µM.
With `O=C1N[C@@H](O)[C@@H]2ON=C(c3ccccc3)[C@H]12`, the TGI in test [1], in test [2], in [3], in test [4], in test [5] and in test [6] was above 100 µM in each case. Further, the TGI in test [7], in test [8] and in [9] was above 100 µM each time.
Turning to `COc1ccc2c(c1)C=CC(C#N)N2C(=O)c1ccccc1` (centres undefined), the GI50 in test [1], in test [2], in test [3], in [5], in test [6] and in [7] was below 0.01 µM each time. In addition, the GI50 in [9] and in [10] was below 0.01 µM each time. For the same molecule, the TGI in [1] is above 100 µM; in [2], above 100 µM; in test [3], above 100 µM; in test [5], below 0.048 µM; in test [6] it was above 100 µM; in [7], above 100 µM. For the same molecule, the TGI in [9] is above 100 µM; in test [10], 3.14 µM.
In the case of `O=c1c2ccccc2c2c3c1cccc3c1cccc3c(=O)c4ccccc4c2c31`, the TGI in test [1], in test [2], in [3], in [4], in [5] and in [6] was above 100 µM in each case. For the same molecule, the TGI in [7], in [8] and in test [9] was above 100 µM throughout.
For `c1ccc2c(c1)N=C(c1cccc3ccccc13)CC(c1cccc3ccccc13)S2` (centres undefined), the TGI came to 4.89 µM in test [1]; 41.9 µM in [2]; 6.08 µM in test [3]; 26.2 µM in test [4]; 28.3 µM in test [5]; 12.9 µM in test [6]. Further, the TGI in test [7] came out at 23.6 µM; in test [8], 16.5 µM; in test [9], 4.67 µM.
Consider `Cc1ccc2/c(=C/c3ccc(N(C)C)cc3)c3cc(-c4ccccc4)[n+](C)n3c2c1`, for which the GI50 is below 0.01 µM in test [1]; 0.0987 µM in [2]; below 0.01 µM in [3]; 0.0591 µM in [4]; 0.0969 µM in test [6]; 0.92 µM in [7]. Also, the GI50 is 0.0269 µM in [9] and 0.0337 µM in test [10]. Further, the TGI in test [2] was above 100 µM; in test [4] it was 2.54 µM; in test [6] it was above 44.1 µM; in test [10], 1.06 µM.
Turning to `N#Cc1c(N)c(C(=O)O)nn(-c2cccc(C(F)(F)F)c2)c1=O`, the TGI in test [1], in test [2], in test [3], in [4], in test [5] and in test [6] was above 100 µM throughout. Besides, the TGI in test [7], in [8] and in test [9] was above 100 µM each time.
As to `NC(N)=N/N=C/c1c(-c2ccccn2)nc2sc(Cl)cn12`, the GI50 in [1] was 0.845 µM; in [2], 6.87 µM; in test [3], 8.28 µM; in test [4] it was 7.6 µM; in test [5], 6.26 µM; in [6], 7.97 µM. Further, the GI50 in [7] was 7.85 µM; in test [10], 5.64 µM. Also, the TGI in [1] was found to be 3.05 µM; in test [2], 14 µM; in [3], 15.1 µM; in [4], 15.9 µM; in test [5] it was 17 µM; in [6], 16 µM. Further, the TGI in test [7] was found to be 14.8 µM; in test [10], 11.7 µM.
In the case of `Cc1c(C(=O)NN)nnn1-c1ccnc2c(C(F)(F)F)cccc12`, the GI50 in test [1], in test [2], in test [4], in test [5], in test [6] and in test [7] was above 100 µM in each case. In addition, the GI50 in test [8], in test [9] and in [10] was above 100 µM each time. Also, the TGI in test [1], in test [2], in test [4], in test [5], in test [6] and in test [7] was above 100 µM in each case. The TGI in [8], in [9] and in test [10] was above 100 µM throughout.
In the case of `Cc1sc(C)c(-c2ccc(CO)o2)c1-c1ccc(CO)o1`, the GI50 in [1] is above 77.9 µM; in test [2] it was 2.88 µM; in [3] it was 14.5 µM; in test [4], 70.9 µM; in test [6], above 100 µM; in test [7] it was 28.8 µM. The GI50 in [8] is 0.316 µM; in [9] it was 49.1 µM; in [10] it was 51 µM. Further, the TGI in test [1], in test [2], in test [3], in test [4], in test [6] and in test [7] was above 100 µM throughout. Further, the TGI in test [8], in test [9] and in [10] was above 100 µM throughout.
In the case of `CCCCCC(C(O)C#N)C(O)(C(F)(F)F)C(F)(F)F` (centres undefined), the TGI in [1], in test [2], in test [3], in [4], in test [5] and in [6] was above 10 µM each time. Moreover, the TGI in test [9] and in test [10] was above 10 µM in each case.
For the molecule `COc1cc(/C=C2\CC3C4CC=C5CC(N6CCCC6)CC[C@]5(C)C4CC[C@]3(C)C2OC(C)=O)ccc1OCCN1CCCC1` (some centres undefined), the GI50 in test [1] is 1.83 µM; in [2], 2.08 µM; in [3], 1.81 µM; in [4], 1.89 µM; in test [5], 3.61 µM; in test [6], 5.73 µM. Besides, the GI50 in [7] was 1.86 µM; in test [9], 1.95 µM; in test [10] it was 8.82 µM. Besides, the TGI came to 4.01 µM in test [1]; 4.63 µM in test [2]; 3.73 µM in [3]; 3.41 µM in [4]; 12.9 µM in [5]; 22.8 µM in test [6]. The TGI was 3.35 µM in test [7], 4.87 µM in [9] and 22.5 µM in [10].
For `CCCNCc1cc(C)cc2c1nc(N1CCNCC1)n2Cc1cc(C)c(F)c(C)c1`, the GI50 in test [1] is 1.22 µM; in test [2] it was 4.54 µM; in [3], 1.84 µM; in [4], 1.86 µM; in test [5], 1.82 µM; in [6], 2.41 µM. The GI50 in test [7] was 13.2 µM; in test [9] it was 2.2 µM; in test [10] it was 1.61 µM. Also, the TGI amounted to 3.39 µM in [1]; 17.1 µM in test [2]; 3.58 µM in [3]; 3.47 µM in test [4]; 3.42 µM in test [5]; 7.18 µM in [6]. For the same molecule, the TGI in test [7] was 27.3 µM; in test [9], 4.71 µM; in test [10], 3.8 µM.
Regarding `Clc1ccc(CNc2nc3ccccc3nc2-c2cccs2)c(Cl)c1`, the TGI in test [1], in [2], in test [3], in [5], in test [6] and in test [7] was above 100 µM in each case. The TGI in test [8] and in test [9] was above 100 µM in each case.
Turning to `CCOC(=O)Cc1nc(/C(C#N)=C/c2ccco2)[nH]c(=O)c1C#N`, the TGI in [1], in test [2], in [3], in [4], in [5] and in test [6] was above 100 µM each time. The TGI in test [7], in [8] and in test [9] was above 100 µM in each case.
Regarding `COc1ccc(C2C(N)=NCC2c2ccccn2)cc1` (centres undefined), the TGI in test [1], in test [2], in test [3], in test [4], in [5] and in test [6] was above 100 µM in each case. Moreover, the TGI in test [7], in test [8] and in test [9] was above 100 µM in each case.
On to `CC1(C)CCc2cc3c(cc2O1)OCCC3=O`, for which the TGI in test [1], in test [2], in test [3], in test [4], in test [5] and in test [6] was above 100 µM throughout. The TGI in test [7], in test [8] and in test [9] was above 100 µM each time.
For the molecule `CNC(=O)c1ccc(-c2cnc3ncc(Cc4ccc5ncccc5c4)n3n2)cc1F`, the GI50 in test [1] is above 100 µM; in test [2], above 100 µM; in test [3], 75.1 µM; in test [5], above 100 µM; in [6] it was above 100 µM; in [7] it was above 100 µM. Also, the GI50 was 13.4 µM in test [8], above 100 µM in [9] and 40.8 µM in test [10]. Also, the TGI in [1], in test [2], in [3], in test [5], in test [6] and in test [7] was above 100 µM each time. Also, the TGI in test [8], in test [9] and in test [10] was above 100 µM each time.
Regarding `O=C(Nc1cc(-c2ccccc2)[nH]n1)c1ccc(Cl)cc1`, the GI50 is 5.65 µM in test [1]; 30.4 µM in test [2]; 9.42 µM in test [3]; 8.66 µM in test [4]; above 100 µM in test [5]; 74.2 µM in test [6]. Besides, the GI50 in [7] was 7.32 µM; in test [8], 7.16 µM; in test [10], 30.4 µM. Besides, the TGI in test [1], in [2], in [3], in test [4], in test [5] and in [6] was above 100 µM each time. Moreover, the TGI in [7], in [8] and in test [10] was above 100 µM in each case.
Regarding `C=C1CC(COc2cc(Cl)nc(N)n2)C1`, the GI50 in [1] is 34.8 µM; in [2] it was 33.9 µM; in test [3], 13.5 µM; in test [5] it was 21.1 µM; in [6] it was 37.2 µM; in test [7], 35.6 µM. Also, the GI50 in [8] is 36.8 µM; in [9], 69.6 µM; in test [10], 30.1 µM. The TGI in test [5] is 60.8 µM.
